Data: PMC7828447, “Design, Synthesis and Biological Evaluation of Arylpyridin-2-yl Guanidine Derivatives and Cyclic Mimetics as Novel MSK1 Inhibitors. An Application in an Asthma Model” (Molecules, 2021)
Counter-ions that a name gives are not always drawn. Like-named read-outs stand apart in the source and are kept apart here.

How the values were obtained:
[1] = target: T1, human synthetic MSK1 (14-438-K, Millipore) (Homo sapiens, UniProt O75582); assay: MSK1 enzymatic inhibition assay (Kinase-Glo luminescence); format: biochemical; conditions: for inhibition at 1 µM: read-out: MSK1 % Inhibition 1 µM; for inhibition at 10 µM: read-out: MSK1 % Inhibition 10 µM; for MSK1 inhibitory activity (in words): tested at 1 and 10 µM; for IC50: 8 concentrations 0.03-100 µM
T1 construct: purchased Millipore 14-438-K
T1 sequence (O75582 whole entry): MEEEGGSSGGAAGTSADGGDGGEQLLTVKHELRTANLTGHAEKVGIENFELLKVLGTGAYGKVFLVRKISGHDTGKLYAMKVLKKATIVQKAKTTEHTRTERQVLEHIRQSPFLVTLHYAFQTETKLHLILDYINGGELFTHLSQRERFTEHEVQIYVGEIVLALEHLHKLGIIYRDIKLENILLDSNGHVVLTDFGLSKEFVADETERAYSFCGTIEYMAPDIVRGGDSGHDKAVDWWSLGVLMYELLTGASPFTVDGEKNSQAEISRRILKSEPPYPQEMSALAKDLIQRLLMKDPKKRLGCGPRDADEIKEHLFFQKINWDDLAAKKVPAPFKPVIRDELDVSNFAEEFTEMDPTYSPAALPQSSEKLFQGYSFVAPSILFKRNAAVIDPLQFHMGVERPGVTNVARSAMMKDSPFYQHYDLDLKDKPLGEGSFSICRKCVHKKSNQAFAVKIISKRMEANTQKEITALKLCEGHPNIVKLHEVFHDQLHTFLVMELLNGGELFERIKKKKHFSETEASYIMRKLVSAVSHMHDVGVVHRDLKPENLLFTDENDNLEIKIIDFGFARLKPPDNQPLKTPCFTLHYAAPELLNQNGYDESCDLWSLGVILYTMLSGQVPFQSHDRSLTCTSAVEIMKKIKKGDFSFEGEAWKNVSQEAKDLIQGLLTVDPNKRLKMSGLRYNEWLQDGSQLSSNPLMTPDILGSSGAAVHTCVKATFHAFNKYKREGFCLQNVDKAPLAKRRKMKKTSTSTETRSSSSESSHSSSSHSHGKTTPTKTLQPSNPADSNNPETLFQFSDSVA
Procedure: All results are summarized in Table 1, Table 2, Table 3, Table 4 and Table 5 and on Figure 4. […]
An orthogonal luminescence-based assay Kinase-Glo® (Promega, Madison, WI, USA) was used to validate the hits, quantifying the amount of the remaining ATP in the solution following the kinase reaction. Enzymatic reactions were performed up to 4h at room temperature in presence of 3 µM ATP. All compounds were tested in quadruplicates at 1 µM and 10 µM. […] Luminescence was measured with EnVision Plate Reader (Perkin Elmer).

[2] = compound at 1 µM, ± Standard Deviation (n = 4)
[3] = compound at 10 µM, ± Standard Deviation (n = 4)
[4] = ± Standard Deviation (n = 4), read-out: MSK1 IC50
[5] = MSK1 IC50, ± Standard Deviation (n = 4)

Row | inhibition at 1 µM [1, 2] | inhibition at 10 µM [1, 3] | MSK1 inhibitory activity (in words) [1] | Compound | other results
1 | -9 ± 2% | 0% |  | Br.NC1=Nc2cccc(-c3ccc(Cl)cc3)c2CN1 [Compound 37b, 5-(4-Chlorophenyl)-3,4-dihydroquinazolin-2-amine Hydrobromide] | melting point: 196 to 197 °C
2 |  | 70 ± 7% |  | N=C(N)Nc1cccc(-c2cccnc2)n1 [Compound 1s, 1-[6-(Pyridin-3-yl)pyridin-2-yl] guanidinium trifluoroacetate] | IC50 [1, 4]: 5.8 ± 0.6 µM
3 | -2 ± 6% | 25 ± 5% |  | Br.COc1ccc(-c2cccc3[nH]c(N)nc23)cc1 [Compound 49c, 4-(4-Methoxyphenyl)-1H-benzo[d]imidazol-2-amine Hydrobromide] | melting point: 218 to 220 °C
4 | 2 ± 2% | 31 ± 7% |  | N=C(N)Nc1cccc(-c2ccc(Cl)cc2Cl)n1 [Compound 1p, 1-[6-(2,4-Dichlorophenyl)pyridin-2-yl] guanidiniumtrifluoroacetate] | IC50 [1, 4]: > 30 µM
5 | 16 ± 3% | 66 ± 12% |  | COc1ccccc1-c1cccc(NC(=N)N)n1 [Compound 1n] | IC50 [1, 4]: 2.3 ± 0.3 µM
6 | 62 ± 8% | 95 ± 8% |  | N=C(N)Nc1cccc(-c2ccccc2Cl)n1 [Compound 1k] | IC50 [1, 4]: 0.6 ± 0.1 µM
7 | 2 ± 4% | 6 ± 4% |  | N=C(N)Nc1ccc(CCc2ccccc2)cn1 [Compound 25] | 
8 | -6 ± 4% | 3 ± 7% |  | Br.COc1cccc(-c2cccc3c2CNC(N)=N3)c1 [Compound 37e, 5-(3-Methoxyphenyl)-3,4-dihydroquinazolin-2-amine Hydrobromide] | melting point: 198 to 199 °C
9 | -3 ± 6% | 49 ± 9% |  | Br.Nc1nc2c(-c3ccc(Cl)cc3)cccc2[nH]1 [Compound 49b, 4-(4-Chlorophenyl)-1H-benzo[d]imidazol-2-amine Hydrobromide] | melting point: 254 to 256 °C
10 | -3 ± 5% | 39 ± 7% |  | Br.COc1ccccc1-c1cccc2[nH]c(N)nc12 [Compound 49g, 4-(2-Methoxyphenyl)-1H-benzo[d]imidazol-2-amine Hydrobromide] | melting point: 61 to 66 °C
11 | -6 ± 3% | 41 ± 6% |  | Nc1nc2c(-c3ccccc3Cl)cccc2n1CCc1ccccc1 [Compound 74a] | 
12 | -7 ± 4% | 16 ± 4% | inactive | COc1cccc(-c2cccc(NC(=N)N)n2)c1 [Compound 1f] | 
13 | -2 ± 1% | 1 ± 2% | inactivity | c1ccc(NC2=Nc3cccc(-c4ccccc4)c3CN2)cc1 [Compound 60b] | melting point: 77 to 82 °C
14 | -6 ± 2% | 1 ± 2% |  | Nc1nc2cccc(-c3ccccc3Cl)c2n1CCc1ccccc1 [Compound 75] | 
15 |  |  |  | N=C(N)Nc1cccc(-c2ccc(Cl)cc2Cl)n1 (as salt: trifluoroacetate) [Compound 1p, 1-[6-(2,4-Dichlorophenyl)pyridin-2-yl] guanidiniumtrifluoroacetate] | melting point: 196 to 197 °C
16 | 0% | 45 ± 5% |  | N=C(N)Nc1cccc(-c2cccc(Cl)c2)n1 [Compound 1e] | IC50 [1, 4]: 9.7 ± 1 µM
17 |  |  |  | N=C(N)Nc1cccc(-c2ccncc2)n1 (as salt: trifluoroacetate) [Compound 1r, 1-[6-(Pyridin-4-yl)pyridin-2-yl] guanidiniumtrifluoroacetate] | melting point: 208 to 209 °C
18 |  |  |  | N=C(N)Nc1cccc(-c2ccccc2F)n1 (as salt: trifluoroacetate) [Compound 1j, 1-[6-(2-Fluorophenyl)pyridin-2-yl] guanidiniumtrifluoroacetate] | melting point: 199 to 200 °C
19 | -4 ± 2% | 37 ± 5% |  | Nc1nc2c(-c3ccccc3Cl)cccc2n1CCCNC(=O)c1ccccc1 [Compound 74c] | 
20 | -2 ± 4% | 49 ± 13% |  | Nc1nc2c(-c3ccccc3Cl)cccc2n1CCO [Compound 74b] | 
21 | 20 ± 3% | 75 ± 8% |  | Nc1nc2c(-c3cccc(Cl)c3Cl)cccc2[nH]1 [Compound 49e, 4-(2,3-Dichlorophenyl)-1H-benzo[d]imidazol-2-amine Hydrobromide] | IC50 [1, 4]: 3.2 ± 0.2 µM
22 | 1 ± 3% | 5 ± 3% |  | Nc1nc2c(-c3ccccc3Cl)cccc2n1CCCCc1ccccc1 [Compound 74d] | 

Row | inhibition at 1 µM [1, 2] | inhibition at 10 µM [1, 3] | MSK1 inhibitory activity (in words) [1] | Compound | other results
23 | -10 ± 2% | -11 ± 1% | inactive | N=C(N)Nc1ccc(-c2ccccc2)cn1 [Compound 12, 5-phenyl pyridinylguanidine] | 
24 | -4 ± 5% | 23 ± 1% | inactive | N=C(N)Nc1cccc(-c2ccc(Cl)cc2)n1 [Compound 1b] | 
25 | -28 ± 7% | 4 ± 14% | inactivity | Nc1nc2c(-c3ccccc3Cl)cccc2s1 [Compound 67] | 
26 | -18 ± 5% | 0% | inactivity | O=c1[nH]c2cccc(-c3ccccc3Cl)c2[nH]1 [Compound 64] | 
27 | 10 ± 5% | 62 ± 15% |  | N=C(N)Nc1cccc(-c2cccc(C(F)(F)F)c2Cl)n1 [Compound 1i, 1-[6-(2-chloro-3-trifluoromethylphenyl)pyridin-2-yl] guanidinium trifluoroacetate] | IC50 [1, 4]: 8.6 ± 0.9 µM
28 |  | 16 ± 4% | totally inactive | N=C(N)Nc1cccc(N2CCCCC2)n1 [Compound 31, 2-guanidino-6-piperidinopyridine] | 
29 |  |  |  | Cc1ccccc1-c1cccc(NC(=N)N)n1 (as salt: trifluoroacetate) [Compound 1l, 1-[6-(2-Methylphenyl)pyridin-2-yl] guanidiniumtrifluoroacetate] | melting point: 168 to 169 °C
30 |  |  |  | N=C(N)Nc1cccc(Cc2ccccc2)n1 (as salt: trifluoroacetate) [Compound 17, 1-(6-Benzylpyridin-2-yl) guanidiniumtrifluoroacetate] | melting point: 161 to 162 °C
31 | -7 ± 5% | 4 ± 4% |  | Nc1nc2cc(-c3ccccc3)ccc2[nH]1 [Compound 50] | 
32 | 1 ± 5% | 11 ± 5% | inactive | N=C(N)Nc1ncccc1-c1ccccc1 [Compound 14] | 
33 | -4 ± 1% | 5 ± 1% | inactive | N=C(N)Nc1cc(-c2ccccc2)ccn1 [Compound 13] | 
34 | 7 ± 9% | 9 ± 6% |  | NC1=Nc2ccc(-c3ccccc3)cc2CN1 [Compound 43] | 
35 | 4 ± 8% | 48 ± 15% |  | Cc1ccccc1-c1cccc(NC(=N)N)n1 [Compound 1l, 1-[6-(2-Methylphenyl)pyridin-2-yl] guanidiniumtrifluoroacetate] | IC50 [1, 4]: 3.5 ± 0.3 µM
36 |  |  |  | N=C(N)Nc1cccc(-c2cccnc2Cl)n1 [Compound 1t, 1-(2′-Chloro-[2,3′-bipyridin]-6-yl) guanidiniumtrifluoroacetate] | IC50 [1, 5]: 12.6 ± 4 µM; inhibition at 10 µM [1]: 69 ± 11%
37 | 2 ± 10% | 5 ± 3% | inactive | NC(=S)Nc1cccc(-c2ccccc2)n1 [Compound 33, 1(6-phenylpyridin-2-yl)thiourea] | 
38 |  |  |  | N=C(N)Nc1cccc(N2CCCCC2)n1 (as salt: salt) [Compound 31, 2-guanidino-6-piperidinopyridine] | melting point: 196 to 197 °C
39 | -5 ± 3% | -3 ± 4% | inactive | COc1ccc(-c2cccc(NC(=N)N)n2)cc1 [Compound 1d] | 
40 |  | 18 ± 2% |  | N=C(N)Nc1cccc(-c2ccncc2)n1 [Compound 1r, 1-[6-(Pyridin-4-yl)pyridin-2-yl] guanidiniumtrifluoroacetate] | 
41 | -7 ± 4% | -5 ± 5% |  | COc1ccc(-c2cccc3c2CNC(N)=N3)cc1 [Compound 37c, 5-(4-Methoxyphenyl)-3,4-dihydroquinazolin-2-amine Hydrobromide] | 
42 | -4 ± 1% | -8 ± 1% | inactive | N=C(N)Nc1cccc(CCc2ccccc2)n1 [Compound 24] | 
43 |  |  |  | N=C(N)Nc1cccc(-c2cc(Cl)ccc2Cl)n1 (as salt: trifluoroacetate) [Compound 1q, 1-[6-(2,5-Dichlorophenyl)pyridin-2-yl] guanidiniumtrifluoroacetate] | melting point: 151 to 152 °C

Row | Compound | inhibition at 1 µM [1, 2] | inhibition at 10 µM [1, 3] | MSK1 inhibitory activity (in words) [1] | other results
44 | 6-Phenyl-3,4-dihydrobenzodiazepin-2-amine Hydrochloride [Compound 57] |  |  | inactive | MSK1 % Inhibition 1 µM [1, 2]: 8±6%; MSK1 % Inhibition 10 µM [1, 3]: 12±6%
45 | COc1ncccc1-c1cccc(NC(=N)N)n1 [Compound 1u, 1-(2′-Methoxy-[2,3′-bipyridin]-6-yl) guanidiniumtrifluoroacetate] |  |  | abolished the inhibitory activity | IC50 [1, 5]: > 30 µM; inhibition at 10 µM [1]: 42 ± 7%
46 | N=C(N)Nc1cccc(Cc2ccccc2)n1 [Compound 17, 1-(6-Benzylpyridin-2-yl) guanidiniumtrifluoroacetate] |  |  | inactive | inhibition at 1 µM [1]: -2 ± 1%; inhibition at 10 µM [1]: -2 ± 3%
